In paper PMC6493465 (Oncotarget, 2019):
Like-named read-outs stand apart in the source and are kept apart here.

How the values were obtained:
[1] = Pharmacokinetic assays (plasma and tumor) in nude mice xenografted with MV4-11 cells; format: in vivo, mouse; settings: for AUC24 ratio: combination versus the other group; for Cmax / Tmax / AUC: nude, mouse; for AUC: read-out: AUC24
Description: Plasma samples were prepared by centrifugation (n=3 per group; one sample in the combination group was excluded due to improper handling). […] These assays were conducted by Astellas Research Technologies Co., Ltd. under the guidance of Analysis & Pharmacokinetics Research Laboratories, Astellas Pharma, Inc., or by Nemoto Science Co., Ltd. (Ibaraki, Japan). […] Body weight and tumor assessments obtained on with MV4-11 cells received one of the following Day −1 were designated as Day 0 (baseline) measurements. combination treatments: 1. […] The percent tumor regression was calculated using the formula: […]

[2] = test system: MCL-1, BCL2L10, survivin and cPARP in MV4-11 cells; assay: Western blot analysis of anti-apoptotic protein expression, MV4-11; format: cell-based, human; settings: MV4-11, 24-hour treatment; gilteritinib 10 nM, AraC 1000 nM, DNR 6 nM, IDR 1 nM and 2 nM, Aza 1000 nM
Description: Cell lysates were prepared in radioimmunoprecipitation assay buffer (Thermo Fisher Scientific Inc., Rockford, IL) supplemented with phosphatase (Thermo Fisher Scientific Inc.) and protease inhibitors (Merck, Billerica, MA), electrophoresed on 4%–15% gels, and subsequently transferred to polyvinylidene difluoride membranes. The membranes were blocked using Blocking One (Nacalai Tesque Inc., Kyoto, Japan) for 1 hour and then incubated overnight with primary antibodies to MCL-1, BCL210, cPARP (all from Cell Signaling Technology, Danvers, MA, USA), survivin (R&D Systems, Inc., Minneapolis, MN), and α-actin (MilliporeSigma, Burlington, MA). The membranes were washed with TBS Tween-20 (TBS-T) buffer and incubated with appropriate horseradish peroxidase-linked secondary antibodies (Cell Signaling Technology Japan K.K.) for 1 hour at room temperature. After washing the membranes in TBS-T buffer, enhanced chemiluminescence Western Blotting Detection Reagent ECL-prime (GE Healthcare, Fairfield, CT) was applied. Signals were detected with a charge-coupled device camera (ImageQuant LAS4000; GE Healthcare); signal intensity was quantified using ImageQuant™ TL software (GE Healthcare).

MV4-11 cells [3] = assay: Annexin-V staining (apoptosis), MV4-11; format: cell-based, human; settings: gilteritinib alone 3, 10 and 30 nM, 48 hours, vs vehicle
Description: MV4-11 cells were seeded in 12-well plates at a concentration of 2 × 10^5 cells/well and cultured overnight. […] MOLM-13 cells were seeded in 12-well plates at a concentration of 1 × 10^5 cells/well and cultured overnight.
Cells were harvested and incubated with Guava® Nexin Reagent (Merck Millipore Corporation, Billerica, MA). Annexin-V-positive cells were assessed using a Guava® PCA microcytometer (Merck Millipore Corporation); the percentage of annexin-V-positive cells (2000 cells per sample) was analyzed using CytoSoft™ software (Merck Millipore Corporation). Mean percentages of annexin-V-positive cells were derived from three independent experiments.

MV4-11 cells [4] = assay: Cell cycle analysis; format: cell-based, human; settings: 24 hours, control 59.8%
Description: MV4-11 cells were seeded in 12-well plates (AGC Techno Glass Co. Ltd., Shizuoka, Japan) at a concentration of 2 × 10^5 cells/well and cultured overnight.
The cells were subsequently harvested and fixed in ice-cold 70% ethanol and maintained at 4°C. Following fixation, the cells were washed with phosphate-buffered saline (PBS) and were resuspended in Guava® Cell Cycle Reagent (Merck Millipore Corporation, Darmstadt, Germany). Cell cycle distribution was measured using a Guava® PCA microcytometer (Merck Millipore Corporation), and was analyzed in 5000 cells per sample using CytoSoft™ software (Merck Millipore Corporation). The mean percentages of cells in sub-G1, G1, S, and G2/M phases were derived from four independent assays.

[5] = plasma, iv, 3 mg/kg, azacitidine in plasma, gilteritinib 3, azacitidine 3 mg/kg
[6] = plasma, iv, azacitidine in plasma, doses gilteritinib 3, azacitidine 0 mg/kg
[7] = tumor, iv, 3 mg/kg, azacitidine in tumor, gilteritinib 3, azacitidine 3 mg/kg
[8] = plasma, po, 3 mg/kg, gilteritinib in plasma, gilteritinib 3 mg/kg, AraC 0, IDR 0
[9] = plasma, po, 3 mg/kg, gilteritinib in plasma, gilteritinib 3, AraC 50, IDR 0.5 mg/kg
[10] = plasma, po, 3 mg/kg, gilteritinib in plasma, gilteritinib 3, azacitidine 0 mg/kg
[11] = plasma, po, 3 mg/kg, gilteritinib in plasma, gilteritinib 3, azacitidine 3 mg/kg
[12] = tumor, po, 3 mg/kg, gilteritinib in tumor, gilteritinib 3 mg/kg, AraC 0, IDR 0
[13] = tumor, po, 3 mg/kg, gilteritinib in tumor, gilteritinib 3, AraC 50, IDR 0.5 mg/kg
[14] = tumor, po, 3 mg/kg, gilteritinib in tumor, gilteritinib 3, azacitidine 0 mg/kg
[15] = tumor, po, 3 mg/kg, gilteritinib in tumor, gilteritinib 3, azacitidine 3 mg/kg

Nc1ncn([C@@H]2O[C@H](CO)[C@@H](O)[C@H]2O)c(=O)n1 [Aza, Azacitidine]
AUC24 ratio ([1]; azacitidine in plasma): 0.87
AUC24 ratio ([1]; azacitidine in tumor): 1.17
AUC24 ([1]; azacitidine in tumor, doses gilteritinib 3, azacitidine 0 mg/kg): 323 ng·h/g
AUC24 ([1]; azacitidine in tumor, gilteritinib 3, azacitidine 3 mg/kg): 378 ng·h/g
Cmax [1, 5]: 3440 ng/mL
Tmax [1, 5]: 0.08 h
AUC [1, 5]: 1610 ng·h/mL
Cmax [1, 6]: 3390 ng/mL
Tmax [1, 6]: 0.08 h
AUC [1, 6]: 1850 ng·h/mL
Cmax [1, 7]: 96.8 ng/g
Tmax [1, 7]: 0.5 h
Cmax ([1]; tumor, iv, azacitidine in tumor): 61.3 ng/g
Tmax ([1]; tumor, iv, azacitidine in tumor, doses gilteritinib 3, azacitidine 0 mg/kg): 0.08 h
expression of MCL-1, BCL2L10, and survivin [2]: no change

CCc1nc(C(N)=O)c(Nc2ccc(N3CCC(N4CCN(C)CC4)CC3)c(OC)c2)nc1NC1CCOCC1 [Gilteritinib]
proportion of annexin-V-positive cells (MV4-11 cells [3]): significantly increased
difference in PK profile alone versus in combination ([1]; alone or in combination with AraC/IDR or Aza): no discernable difference
AUC24 ([1]; gilteritinib in tumor, gilteritinib 3 mg/kg, AraC 0, IDR 0): 6430.2 ng·h/g
AUC24 ([1]; gilteritinib in tumor, gilteritinib 3, AraC 50, IDR 0.5 mg/kg): 6639.0 ng·h/g
AUC24 ([1]; gilteritinib in tumor, gilteritinib 3, azacitidine 0 mg/kg): 3821 ng·h/g
AUC24 ([1]; gilteritinib in tumor, gilteritinib 3, azacitidine 3 mg/kg): 3964 ng·h/g
Cmax [1, 8]: 21.3 ng/mL
Tmax [1, 8]: 2 h
AUC [1, 8]: 156 ng·h/mL
Cmax [1, 9]: 22.3 ng/mL
Tmax [1, 9]: 2 h
AUC [1, 9]: 199 ng·h/mL
Cmax [1, 10]: 11 ng/mL
Tmax [1, 10]: 2 h
AUC [1, 10]: 65.8 ng·h/mL
Cmax [1, 11]: 10.1 ng/mL
Tmax [1, 11]: 2 h
AUC [1, 11]: 69.1 ng·h/mL
Cmax [1, 12]: 677 ng/g
Tmax [1, 12]: 2 h
Cmax [1, 13]: 437 ng/g
Tmax [1, 13]: 4 h
Cmax [1, 14]: 387 ng/g
Tmax [1, 14]: 4 h
Cmax [1, 15]: 349 ng/g
Tmax [1, 15]: 4 h
time after administration at which plasma concentrations peaked ([1]; plasma, alone or in combination with AraC/IDR or Aza): 2 h
concentration in tumor fraction versus plasma fraction ([1]; xenografted mice): higher in the tumor fraction
mean proportion of MV4-11 cells in G1 phase (MV4-11 cells [4]; gilteritinib 3 nM): 69.0%
mean proportion of MV4-11 cells in G1 phase (MV4-11 cells [4]; gilteritinib 10 nM): 70.7%
expression of MCL-1, BCL2L10, and survivin [2]: inhibited the expression
